{"source": "patent US12419917B2", "about": "“Compositions and methods for treatment of conditions using fractionated honey” (NDAL MFG INC, priority 2021, dated 2025)", "tested_on": "SARS-CoV-2", "format": "cell-based", "details": "1-hour contact at 22 ± 2° C., cleanser 100%, ethanol 70%"}
{"smiles": "CCO", "note": "[Ethanol]", "values": [{"measurement": "LRV (log reduction value) compared to the virus control", "setting": "<1 log reduction not considered active", "result": ">4.3"}, {"measurement": "Virus Titer", "setting": "virus control titer 5.0, limit of detection 0.7", "result": "<0.7 log10 CCID50 of virus per 0.1 mL"}]}
